From patent publication US20250367160A1, “USE OF GUAIJAVERIN IN PREPARATION OF EYE PROTECTION PRODUCT” (Innovation Center of Yangtze River Delta, ZJU, priority 2024, published 2025)

Columns and labels:
[1] = system: mouse retinal apoptotic cells; assay: Mouse retinal optical damage model, TUNEL staining of retinal apoptotic cells; assay type: in vivo, BALB/c mice; conditions: for retinal cell apoptosis caused by light (TUNEL): gavage once a day 10 days, vs model group, FIG. 6
Method: (§1) A self-made light box with a length of 108 cm, a width of 50 cm, and a height of 72 cm was used, and the light intensity was measured by a light meter to be 8,500-10,000 Lux. After eye examination, 60 mice with normal eyeballs were selected and randomly divided into a control group, a model group, a lutein group (100 mg/kg), a guaijaverin low-dose group (50 mg/kg), and a guaijaverin high-dose group (100 mg/kg), with 12 mice in each group. Lutein and guaijaverin were suspended in 5% sodium carboxymethylcellulose (CMC-Na) solution and administered by gavage once a day. The mice in the control and model groups were administered by gavage with an equal volume of 5% CMC-Na for 10 consecutive days. 10 days later, the mice in the model group, lutein group, guaijaverin low-dose group, and guaijaverin high-dose group were kept in the dark for 36 h, atropine eye gel was applied to both eyes of the mice to induce pupil dilation, and the mice were placed in the self-made lighting device of 8,000-10,000 Lux (the control group was raised in a normal environment) and given continuous light for 24 h. After the light exposure, the mice in each group had their eyeballs removed to draw blood and eyeball tissue collected for subsequent experimental tests.
Eyeball tissues of 6 mice were collected from each group for Hematoxylin-eosin staining (H&E) and TUNEL fluorescence staining of apoptotic cells, and the pathological changes of mouse eyeball tissues were observed using an optical microscope (completed by Wuhan Servicebio Biotechnology Co., Ltd.).
a) Dewaxing the paraffin sections to water: the sections were sequentially placed into environmental-friendly dewaxing solution I for 10 min, environmental-friendly dewaxing solution II for 10 min, environmental-friendly dewaxing solution III for 10 min, anhydrous ethanol I for 5 min, anhydrous ethanol II for 5 min, anhydrous ethanol III for 5 min and washed with distilled water.
b) Proteinase K repair: after the sections were slightly dried, a tissue pen was used to draw a circle around the tissue (to prevent the liquid from flowing away), a proteinase K working solution was added in the circle to cover the tissue, and incubated in a 37° C. incubator for 20 min. The slides were placed in PBS (PH=7.4) and washed 3 times on a decolorizing shaker, each time for 5 min. (Preparation method of proteinase K working solution, stock solution:PBS=1:9). […]
g) Sealing: the slides were placed in PBS (PH7.4) and washed on a decolorizing shaker for 3 times, 5 min each time. The sections were slightly spin-dried and mounted with anti-fluorescence fading mounting medium. […]

[2] = system: human primary retinal Müller cells; assay: Optical stress (strong white light) model of human primary retinal Müller cells, AlamarBlue cell viability; assay type: cell-based; conditions: pre-incubation 24 h, 32k Lux strong light 4 h
Method: The human primary Müller cells in a logarithmic growth phase were inoculated at a density of 5,000 cells/well in a 96-well plate and cultured in a 37° C., 5% CO2 incubator for 24 h. The medium was removed by aspirating, and 6 replicate wells were set up for guaijaverin groups. 100 μL of the guaijaverin solution dissolved in DMSO solvent in advance was further diluted in DMEM and added into each well, at final concentrations of 10 μM and 30 μM, respectively. The control group was added with 100 μL of DMEM solution. A laboratory-made strong light irradiation system was used to model optical stress on human retinal primary Müller cells cultured in vitro. A strong light irradiation group was irradiated with 32k Lux of strong light for 4 h, while a weak light irradiation group was irradiated with 5k Lux of weak light for 4 h. Then, the cell viability was detected using the AlamarBlue kit.
After the cells were stressed by light, the AlamarBlue kit was used to detect cell viability. The cell culture supernatant was discarded, and the cells were washed twice with 100 μL of PBS. 100 μL of AlamarBlue reagent diluted 1:10 with DMEM solution was added, and the cells were incubated in a 37° C., 5% CO2 incubator for 4 h. The fluorescence of each well was read using a microplate reader at an excitation wavelength of 544 nm and an emission wavelength of 590 nm. 2.

IL-6 = assay: Mouse retinal optical damage model, plasma IL-6 level; assay type: in vivo, BALB/c mice; conditions: gavage once a day 10 days, vs model group, FIG. 8
Method: as §1, with “After the light exposure, the mice in each group had their eyeballs removed to draw blood and eyeball tissue collected for subsequent experimental tests.” left out
The mouse blood was collected in an anticoagulant tube and centrifuged at 3,000 rpm for 10 min at 4° C. to collect the upper plasma. The IL-6 content was determined according to the method provided by the kit manufacturer.

O=c1c(O[C@@H]2OC[C@H](O)[C@H](O)[C@H]2O)c(-c2ccc(O)c(O)c2)oc2cc(O)cc(O)c12 [Guaijaverin, guaijaverin]
protective effect on retinal cell apoptosis compared with lutein (TUNEL) ([1]; high-dose 100 mg/kg vs lutein 100 mg/kg): better protective effect than lutein | retinal cell apoptosis caused by light (TUNEL) ([1]; high-dose 100 mg/kg): effectively improve retinal cell apoptosis caused by light | protective effect on retinal cell apoptosis compared with lutein (TUNEL) ([1]; low-dose 50 mg/kg vs lutein 100 mg/kg): comparable to that of the positive control lutein | retinal cell apoptosis caused by light (TUNEL) ([1]; low-dose 50 mg/kg): effectively improve retinal cell apoptosis caused by light | viability of Müller cells after strong light irradiation ([2]; 10 μM, FIG. 1): significantly restored | viability of Müller cells after strong light irradiation ([2]; 30 μM, FIG. 2): restored to the level under weak light irradiation conditions | plasma level of IL-6 (IL-6; high-dose 100 mg/kg): significantly reduce the level of IL-6 | plasma level of IL-6 (IL-6; low-dose 50 mg/kg): significantly reduce the level of IL-6
